Measurements taken from BindingDB's records for doi:10.1016/0014-2999(93)90722-t (Sanofi Recherche, 1993).
pKi: −log10 of the molar value. “And” between values parts separate entries of the source, which are not always exact repeats. Equal entries are not always repeated. Where a SMILES comes first, the peptide text is derived from it. [ ]: non-standard residue; d: D form. sY = N[C@@H](Cc1ccc(OS(=O)(=O)O)cc1)C(=O)O

Legend:
[1] = target: T1, Gastrin/cholecystokinin type B receptor (Rattus norvegicus, UniProt P30553)
T1 sequence (P30553 whole entry): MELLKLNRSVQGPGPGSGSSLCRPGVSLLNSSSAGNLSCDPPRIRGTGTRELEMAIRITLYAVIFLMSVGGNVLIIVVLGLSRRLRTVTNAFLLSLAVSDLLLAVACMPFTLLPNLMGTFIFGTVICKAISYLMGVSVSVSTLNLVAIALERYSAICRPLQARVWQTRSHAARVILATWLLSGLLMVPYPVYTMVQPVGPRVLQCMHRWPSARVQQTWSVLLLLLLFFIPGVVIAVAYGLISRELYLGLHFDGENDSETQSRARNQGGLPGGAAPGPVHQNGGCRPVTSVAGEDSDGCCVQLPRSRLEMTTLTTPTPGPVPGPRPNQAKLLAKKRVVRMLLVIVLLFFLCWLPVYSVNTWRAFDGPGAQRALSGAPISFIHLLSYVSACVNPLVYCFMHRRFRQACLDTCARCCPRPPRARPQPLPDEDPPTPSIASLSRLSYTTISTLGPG

SMILES | pKi | pKi [1]
CN1C(=O)[C@@H](NC(=O)c2cc3ccccc3[nH]2)N=C(c2ccccc2)c2ccccc21 [1H-Indole-2-carboxylic acid (1-methyl-2-oxo-5-phenyl-2,3-dihydro-1H-benzo[e][1,4]diazepin-3-yl)-amide: 0.1C4H10O. 0.15CH2Cl2] | 6.56 and 6.71 | 
O=C(O)Cn1c(C(=O)Nc2nc(-c3ccccc3Cl)cs2)cc2ccccc21 [CAS_122077] | 6.31 and 5.54 | 9.24
CC[C@H](C)[C@H](NC(=O)[C@H](CCCNC(=N)N)NC(=O)[C@H](Cc1c[nH]cn1)NC(=O)[C@H](CO)NC(=O)[C@@H]1CCCN1C(=O)[C@H](CC(=O)O)NC(=O)[C@H](CC(C)C)NC(=O)[C@H](CC(N)=O)NC(=O)[C@H](CCC(N)=O)NC(=O)[C@H](CC(C)C)NC(=O)[C@H](CC(N)=O)NC(=O)[C@H](CCCCN)NC(=O)[C@@H](NC(=O)[C@@H](NC(=O)[C@H](CO)NC(=O)[C@H](CCSC)NC(=O)[C@H](CCCNC(=N)N)NC(=O)CNC(=O)[C@H](CO)NC(=O)[C@@H]1CCCN1C(=O)[C@H](C)NC(=O)[C@@H](N)CCCCN)[C@@H](C)CC)C(C)C)C(=O)N[C@@H](CO)C(=O)N[C@@H](CC(=O)O)C(=O)N[C@@H](CCCNC(=N)N)C(=O)N[C@@H](CC(=O)O)C(=O)N[C@@H](Cc1ccc(OS(=O)(=O)O)cc1)C(=O)N[C@@H](CCSC)C(=O)NCC(=O)N[C@@H](Cc1c[nH]c2ccccc12)C(=O)N[C@@H](CCSC)C(=O)N[C@@H](CC(=O)O)C(=O)N[C@@H](Cc1ccccc1)C(N)=O [CHOLECYSTOKININ] (H-KAPSGRMSIVKNLQNLDPSHRISDRD[sY]MGWMDF-NH2) | 9.21 | 
CSCC[C@H](NC(=O)[C@H](CC(C)C)NC(=O)[C@H](Cc1cnc[nH]1)NC(=O)CNC(=O)[C@@H](NC(=O)[C@H](C)NC(=O)[C@H](Cc1c[nH]c2ccccc12)NC(=O)[C@H](Cc1cnc[nH]1)NC(=O)[C@H](CC(N)=O)NC(=O)CN)C(C)C)C(N)=O [NSC_5486814] | 7.62 | 
